Patent publication US5202315A, “Cephalosporin compounds” (Lucky, Ltd., priority 1989, dated 1993)
Converted amounts (≈) assume the structure as drawn. Like-named read-outs stand apart in the source and are kept apart here.

Columns and labels:
Format in all cases: cell-based
[1] = test system: Acinetobacter calcoaceticus ATCC 15473; assay: Antibacterial activity, MIC; settings: ATCC15473, ATCC 15473, agar two-fold dilution, 37° C., 20 hours, read-out: MIC
Summary of the method: (§1)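 Agar two-fold dilution method: compound serially diluted two-fold in Mueller-Hinton agar, spotted with 2 μl of a 10^7 CFU/ml inoculum of each standard strain, then incubated at 37 °C for 20 h.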

[2] = test system: Bacillus cereus ATCC 11778; assay: Antibacterial activity, MIC; settings: ATCC11778, ATCC 11778, agar two-fold dilution, 37° C., 20 hours, read-out: MIC
Summary of the method: as §1

[3] = test system: Bacillus megaterium ATCC 9885; assay: Antibacterial activity, MIC; settings: Priestia megaterium, ATCC9885; ATCC 9885; agar two-fold dilution, 37° C., 20 hours; read-out: MIC
Summary of the method: as §1

[4] = test system: Citrobacter freundii ATCC 8090; assay: Antibacterial activity, MIC; settings: ATCC8090, ATCC 8090, agar two-fold dilution, 37° C., 20 hours, read-out: MIC
Summary of the method: as §1

[5] = test system: Enterobacter aerogenes ATCC 29751; assay: Antibacterial activity, MIC; settings: Klebsiella aerogenes, ATCC29751; ATCC 29751; agar two-fold dilution, 37° C., 20 hours; read-out: MIC
Summary of the method: as §1

[6] = test system: Enterobacter cloacae ATCC 27508; assay: Antibacterial activity, MIC; settings: ATCC27508, ATCC 27508, agar two-fold dilution, 37° C., 20 hours, read-out: MIC
Summary of the method: as §1

[7] = test system: Escherichia coli ATCC 10536; assay: Antibacterial activity, MIC; settings: ATCC10536, agar two-fold dilution, 37° C., 20 hours
Summary of the method: as §1

[8] = test system: Escherichia coli ATCC 25922; assay: Antibacterial activity, MIC; settings: ATCC25922, agar two-fold dilution, 37° C., 20 hours
Summary of the method: as §1

[9] = test system: Klebsiella pneumoniae ATCC 10031; assay: Antibacterial activity, MIC; settings: ATCC10031, ATCC 10031, agar two-fold dilution, 37° C., 20 hours, read-out: MIC
Summary of the method: as §1

[10] = test system: Micrococcus luteus ATCC 9341; assay: Antibacterial activity, MIC; settings: ATCC9341, ATCC 9341, agar two-fold dilution, 37° C., 20 hours, read-out: MIC
Summary of the method: as §1

[11] = test system: Morganella morganii ATCC 8076h; assay: Antibacterial activity, MIC; settings: ATCC8076H, agar two-fold dilution, 37° C., 20 hours
Summary of the method: as §1

[12] = test system: Proteus mirabilis ATCC 25933; assay: Antibacterial activity, MIC; settings: ATCC25933, ATCC 25933, agar two-fold dilution, 37° C., 20 hours, read-out: MIC
Summary of the method: as §1

[13] = test system: Proteus vulgaris ATCC 6059; assay: Antibacterial activity, MIC; settings: ATCC6059, ATCC 6059, agar two-fold dilution, 37° C., 20 hours, read-out: MIC
Summary of the method: as §1

[14] = test system: Providencia rettgeri ATCC 9250; assay: Antibacterial activity, MIC; settings: ATCC9250, agar two-fold dilution, 37° C., 20 hours
Summary of the method: as §1

[15] = test system: Pseudomonas aeruginosa ATCC 10145; assay: Antibacterial activity, MIC; settings: ATCC10145, ATCC 10145, agar two-fold dilution, 37° C., 20 hours, read-out: MIC
Summary of the method: as §1

[16] = test system: Pseudomonas aeruginosa ATCC 25619; assay: Antibacterial activity, MIC; settings: ATCC25619, ATCC 25619, agar two-fold dilution, 37° C., 20 hours, read-out: MIC
Summary of the method: as §1

[17] = test system: Pseudomonas aeruginosa ATCC 27853; assay: Antibacterial activity, MIC; settings: ATCC27853, ATCC 27853, agar two-fold dilution, 37° C., 20 hours, read-out: MIC
Summary of the method: as §1

[18] = test system: Salmonella typhimurium ATCC 14028; assay: Antibacterial activity, MIC; settings: Salmonella enterica; ATCC 14028; agar two-fold dilution, 37° C., 20 hours; read-out: MIC
Summary of the method: as §1

[19] = test system: Serratia marcescens ATCC 27117; assay: Antibacterial activity, MIC; settings: ATCC27117, ATCC 27117, agar two-fold dilution, 37° C., 20 hours, read-out: MIC
Summary of the method: as §1

[20] = test system: Shigella flexneri ATCC 11836; assay: Antibacterial activity, MIC; settings: ATCC11836, agar two-fold dilution, 37° C., 20 hours
Summary of the method: as §1

[21] = test system: Shigella sonnei ATCC 11060; assay: Antibacterial activity, MIC; settings: ATCC11060, ATCC 11060, agar two-fold dilution, 37° C., 20 hours, read-out: MIC
Summary of the method: as §1

[22] = test system: Staphylococcus aureus ATCC 10537; assay: Antibacterial activity, MIC; settings: ATCC10537, ATCC 10537, agar two-fold dilution, 37° C., 20 hours, read-out: MIC
Summary of the method: as §1

[23] = test system: Staphylococcus aureus ATCC 6538p; assay: Antibacterial activity, MIC; settings: ATCC6538P, ATCC 6538p, agar two-fold dilution, 37° C., 20 hours, read-out: MIC
Summary of the method: as §1

[24] = test system: Staphylococcus epidermidis ATCC 12228; assay: Antibacterial activity, MIC; settings: ATCC12228, ATCC 12228, agar two-fold dilution, 37° C., 20 hours, read-out: MIC
Summary of the method: as §1

[25] = test system: Streptococcus faecalis ATCC 29212; assay: Antibacterial activity, MIC; settings: Enterococcus faecalis, ATCC29212; ATCC 29212; agar two-fold dilution, 37° C., 20 hours; read-out: MIC
Summary of the method: as §1

Escherichia coli = assay: Antibacterial activity against clinically isolated strains, MIC; settings: 38 clinical isolates, broth microdilution test
Klebsiella pneumoniae = assay: as above; settings: 10 clinical isolates, broth microdilution test; for MIC90: read-out: MIC 90%
[26] = test system: Staphylococcus aureus methicillin susceptible; assay: as above
[27] = test system: Staphylococcus aureus methicillin resistant; assay: as above; settings: methicillin resistant, 7 clinical isolates, broth microdilution test; for MIC90: read-out: MIC 90%
Pseudomonas aeruginosa = assay: as above
[28] = methicillin susceptible, 42 clinical isolates, broth microdilution test
[29] = 54 clinical isolates, broth microdilution test
[30] = methicillin susceptible, 42 clinical isolates, broth microdilution test, read-out: MIC 90%

| Structure (SMILES) | MIC [1] [µg/mL] | MIC [2] [µg/mL] | MIC [3] [µg/mL] | MIC [4] [µg/mL] | MIC [5] [µg/mL] | MIC [6] [µg/mL] | MIC [7] [µg/mL] | MIC [8] [µg/mL] | MIC [9] [µg/mL] | MIC [10] [µg/mL] | MIC [11] [µg/mL] | MIC [12] [µg/mL] | MIC [13] [µg/mL] | MIC [14] [µg/mL] | MIC [15] [µg/mL] | MIC [16] [µg/mL] | MIC [17] [µg/mL] | MIC [18] [µg/mL] | MIC [19] [µg/mL] | MIC [20] [µg/mL] | further results |
| --- | --- | --- | --- | --- | --- | --- | --- | --- | --- | --- | --- | --- | --- | --- | --- | --- | --- | --- | --- | --- | --- |
| CCO/N=C(\C(=O)NC1C(=O)N2C(C(=O)[O-])=C(CSc3nc(N)cc(N)[n+]3C)CSC12)c1nsc(N)n1 (stereo not drawn) [Compound I-20] | 2 (≈ 3.53 µM) | 32 (≈ 56.5 µM) | 0.13 (≈ 0.229 µM) | 0.13 (≈ 0.229 µM) | 0.25 (≈ 0.441 µM) | 0.016 (≈ 0.0282 µM) | 0.13 (≈ 0.229 µM) | 0.13 (≈ 0.229 µM) | 0.016 (≈ 0.0282 µM) | 0.031 (≈ 0.0547 µM) | 0.016 (≈ 0.0282 µM) | 0.5 (≈ 0.882 µM) | 1 (≈ 1.76 µM) | ≤ 0.008 | 4 (≈ 7.06 µM) | 1 (≈ 1.76 µM) | 2 (≈ 3.53 µM) | 0.5 (≈ 0.882 µM) | 0.25 (≈ 0.441 µM) | 0.031 (≈ 0.0547 µM) | MIC [21]: 0.13 µg/mL (≈ 0.229 µM); MIC [22]: 0.25 µg/mL (≈ 0.441 µM); MIC [23]: 0.5 µg/mL (≈ 0.882 µM); MIC [24]: 0.25 µg/mL (≈ 0.441 µM); MIC [25]: 32 µg/mL (≈ 56.5 µM); MIC50 (Escherichia coli): 0.063 µg/mL (≈ 0.111 µM); MIC90 (Escherichia coli): 0.25 µg/mL (≈ 0.441 µM); MIC50 (Klebsiella pneumoniae): 0.13 µg/mL (≈ 0.229 µM); MIC90 (Klebsiella pneumoniae): 0.13 µg/mL (≈ 0.229 µM); MIC90 [26]: 0.5 µg/mL (≈ 0.882 µM); MIC50 [26, 28]: 0.5 µg/mL (≈ 0.882 µM); MIC50 [27]: 16 µg/mL (≈ 28.2 µM); MIC90 [27]: 32 µg/mL (≈ 56.5 µM); MIC90 (Pseudomonas aeruginosa): 16 µg/mL (≈ 28.2 µM); MIC50 (Pseudomonas aeruginosa; [29]): 4 µg/mL (≈ 7.06 µM) |
| C#CCO/N=C(\C(=O)NC1C(=O)N2C(C(=O)[O-])=C(CSc3nc(N)cc(N)[n+]3C)CSC12)c1csc(N)n1 (stereo not drawn) [Compound I-46] | 2 (≈ 3.47 µM) | 8 (≈ 13.9 µM) | 0.063 (≈ 0.109 µM) | 0.063 (≈ 0.109 µM) | 0.25 (≈ 0.434 µM) | ≤ 0.008 | 0.063 (≈ 0.109 µM) | 0.063 (≈ 0.109 µM) | ≤ 0.008 | 0.016 (≈ 0.0278 µM) | ≤ 0.008 | 0.063 (≈ 0.109 µM) | 0.13 (≈ 0.226 µM) | ≤ 0.008 | 4 (≈ 6.95 µM) | 0.5 (≈ 0.869 µM) | 2 (≈ 3.47 µM) | 0.25 (≈ 0.434 µM) | 0.13 (≈ 0.226 µM) | 0.016 (≈ 0.0278 µM) | MIC [21]: 0.063 µg/mL (≈ 0.109 µM); MIC [22]: 0.13 µg/mL (≈ 0.226 µM); MIC [23]: 0.13 µg/mL (≈ 0.226 µM); MIC [24]: 0.031 µg/mL (≈ 0.0539 µM); MIC [25]: 16 µg/mL (≈ 27.8 µM); MIC50 (Escherichia coli): 0.13 µg/mL (≈ 0.226 µM); MIC90 (Escherichia coli): 0.25 µg/mL (≈ 0.434 µM); MIC50 (Klebsiella pneumoniae): 0.13 µg/mL (≈ 0.226 µM); MIC90 (Klebsiella pneumoniae): 0.13 µg/mL (≈ 0.226 µM); MIC50 [26, 28]: 0.25 µg/mL (≈ 0.434 µM); MIC90 [26, 30]: 0.25 µg/mL (≈ 0.434 µM); MIC50 [27]: > 32 µg/mL; MIC90 [27]: > 32 µg/mL; MIC50 (Pseudomonas aeruginosa; [29]): 4 µg/mL (≈ 6.95 µM); MIC90 (Pseudomonas aeruginosa; 54 clinical isolates, broth microdilution test, read-out: MIC 90%): 8 µg/mL (≈ 13.9 µM) |
| C#CCO/N=C(\C(=O)NC1C(=O)N2C(C(=O)[O-])=C(CSc3nc(N)cc(N)[n+]3CC)CSC12)c1csc(N)n1 (stereo not drawn) [Compound I-47] | 4 (≈ 6.78 µM) | 8 (≈ 13.6 µM) | 0.13 (≈ 0.22 µM) | 0.13 (≈ 0.22 µM) | 0.5 (≈ 0.848 µM) | 0.016 (≈ 0.0271 µM) | 0.13 (≈ 0.22 µM) | 0.13 (≈ 0.22 µM) | ≤ 0.008 | ≤ 0.008 | ≤ 0.008 | 0.13 (≈ 0.22 µM) | 0.13 (≈ 0.22 µM) | ≤ 0.008 | 8 (≈ 13.6 µM) | 1 (≈ 1.7 µM) | 2 (≈ 3.39 µM) | 0.25 (≈ 0.424 µM) | 0.13 (≈ 0.22 µM) | 0.016 (≈ 0.0271 µM) | MIC [21]: 0.13 µg/mL (≈ 0.22 µM); MIC [22]: 0.13 µg/mL (≈ 0.22 µM); MIC [23]: 0.25 µg/mL (≈ 0.424 µM); MIC [24]: 0.031 µg/mL (≈ 0.0526 µM); MIC [25]: 32 µg/mL (≈ 54.3 µM); MIC50 (Escherichia coli): 0.063 µg/mL (≈ 0.107 µM); MIC90 (Escherichia coli): 0.25 µg/mL (≈ 0.424 µM); MIC50 (Klebsiella pneumoniae): 0.25 µg/mL (≈ 0.424 µM); MIC90 (Klebsiella pneumoniae): 0.25 µg/mL (≈ 0.424 µM); MIC50 [26, 28]: 0.25 µg/mL (≈ 0.424 µM); MIC90 [26, 30]: 0.25 µg/mL (≈ 0.424 µM); MIC50 [27]: 64 µg/mL (≈ 109 µM); MIC90 [27]: 64 µg/mL (≈ 109 µM); MIC90 (Pseudomonas aeruginosa): 16 µg/mL (≈ 27.1 µM); MIC50 (Pseudomonas aeruginosa; [29]): 4 µg/mL (≈ 6.78 µM) |
